What all share (assay type): cell-based
The subject of experiment [1] is M. tuberculosis Erdman. Put plainly: MBC assay, log killing reduction in CFU over a one month period of incubation (Table 35). Particulars: for Log Reduction (cfu): Compound 23A at 4×MIC.
Experiment [2] has as its system nonreplicating M. tuberculosis. Put plainly: Low-Oxygen-Recovery Assay (LORA) MIC. Particulars: Mycobacterium tuberculosis, read-out: LORA MIC. From the text:
MIC Determination in the Low-Oxygen-Recovery Assay (LORA) for Nonreplicating M. tuberculosis
Screening for new antimicrobial agents is routinely conducted only against actively replicating bacteria. However, it is now widely accepted that a physiological state of non-replicating persistence (NRP) is responsible for antimicrobial tolerance in many bacterial infections. In tuberculosis, the key to shortening the 6-month regimen lies in targeting this NRP subpopulation. […] Cho S H, Want S, Wan B, Hwang C H, Pauli G F, Franzblau S G; “Low-Oxygen-Recovery Assay for High-Throughput Screening of Compounds against Nonreplicating Mycobacterium tuberculosis” Antimicrob Agents Chemother. 2007 April; 51(4): 1380-1385 doi: 10.1128/AAC.00055-06.

Experiment [3] has as its system M. smegmatis. Put plainly: MIC in bacterial broth culture (7H9 with ADC, visual or resazurin). The following applies: Mycolicibacterium smegmatis, Table 31. (Resazurin is reduced to fluorescent resorufin, in cell work by metabolically active cells.)
The subject of experiment [4] is M. avium. The experiment is described as above. Particulars: Table 31, duplicate values.
Experiment [5] deals with intracellular M. tuberculosis in J774 cells. Put plainly: Efficacy against intracellular M. tuberculosis (luciferase) in J774 cells. Particulars: Mycobacterium tuberculosis, J774, 120 h.
For experiment [6], the system named is Mycobacterium tuberculosis. Put plainly: Mycobacterium tuberculosis Serum Shift MIC Assay (Protocol 5). Particulars: ATCC 35801 / ERDMAN. An excerpt: Protocol 5. Protocol for Mycobacterium tuberculosis Serum Shift MIC Assay
Media Prep: • 1. […] It was important that all media and supplements were sterilized prior to MICs. • 2. Prepared all media below and inoculated as described in next section. Tested all compounds against Mtb using each media. • a. […] 7H9+0.2% glycerol+2 g/L dextrose+0.85 g/L NaCl+0.003 g/L catalase (0% FBS). • c. 2×7H9+0.2% glycerol+2 g/L dextrose+0.85 g/L NaCl+0.003 g/L catalase combined with equal volume Fetal Bovine Serum (50% FBS).
Inoculum Prep: • 1. Using BBL Prompt, picked 5-10 well-separated colonies and inoculated 1 ml sterile saline that came in the kit. Typically plates were two to three weeks of age when used for this assay due to the slow growth of this organism in culture. • 2. Vortexed well, then sonicated in water bath for 30 sec providing a suspension of ˜10^8 cells/ml. Actual density could be confirmed by plating out dilutions of this suspension. • 3. Prepared inoculum in each of the three media formulations by diluting the BBL Prompt suspension 1/200 (for example: transferred 0.2 ml of cells to 40 ml of medium) to obtain a starting cell density of […]. • 4. Used 100 μl cells (˜5×10^4 cells) to inoculate each microtiter well containing 1 μl of drug in DMSO (see below).
Drug Dilutions, Inoculation, MIC Determination: • 1. Control drug stocks Isoniazid and Novobiocin were prepared at 10 mM in 100% DMSO while Ciprofloxacin and Rifampin were prepared at 1 mM in 50% DMSO and 100% DMSO, respectively. Prepared dilutions—dispensed 100 μL of the stock solution into the first column of a 96-well plate. Prepared 11-step, 2-fold serial dilutions across the row for each compound by transferring 50 μl from column 1 into 50 μl of DMSO in column 2. Continued to transfer 50 μL from column 2 through column 11 while mixing and changing tips at each column. Left column 12 with DMSO only as a control. • 2. Transferred 1 μl of each dilution into an empty microtiter well prior to the addition of 100 μl of cells. The starting concentration of Isoniazid and Novobiocin was 100 μM after the dilution into medium+cells; the starting concentration of Ciprofloxacin and Rifampin was 10 μM after the dilution into medium+cells. Compound concentrations decreased in 2× steps moving across the rows of the microtiter plate. […] Measured background fluorescence at Excitation 492 nm, Emission 595 nm and returned the plate to the incubator for another 24 hours.
After 24 hours the fluorescence of each well was measured at Excitation 492 nm, Emission 595 nm.
Percent inhibition by a given compound was calculated as follows: Percent inhibition=100−([well fluorescence-average background fluorescence]/[DMSO control−average background fluorescence]×100). […]

Experiment [7] deals with M. kansasii. Briefly: MIC in bacterial broth culture (7H9 with ADC, visual or resazurin). Particulars: Mycobacterium kansasii, Table 31; M. kansasii 303; duplicate values.

This is an account of results in patent publication US9937192B2, “Combination therapy to treat mycobacterium diseases” (priority 2012, dated 2018).

Structures can show the parent of a compound that is named as a salt. Where two headings read alike, the source gives them in different places.

By MIC is commonly meant the least concentration at which growth counts as inhibited. By IC50 is commonly meant the concentration that inhibits the measured activity by half. `CCNC(=O)Nc1nc2cc(-c3cnc(C(C)(C)O)nc3)c(F)c([C@H]3CCCO3)c2[nH]1` [Compound 23A, methanesulfonic acid salt of 1-ethyl-3-[6-fluoro-5-[2-(1-hydroxy-1-methyl-ethyl)pyrimidin-5-yl]-7-[(2R)-tetrahydrofuran-2-yl]-1H-benzimidazol-2-yl]urea]: the “killing kinetics (log reduction in CFU)” value in experiment [1] (4×MIC, one month period of incubation) is given as “slow killing kinetics”. Moreover, the “Log Reduction (cfu)” value turned out to be 0 Log in experiment [1] (day 0 of incubation); 0.2 Log in experiment [1] (day 1 of incubation); 0.2 Log in experiment [1] (day 2 of incubation); 1.0 Log in experiment [1] (day 3 of incubation); 1.9 Log in experiment [1] (day 7 of incubation); 1.9 Log in experiment [1] (day 14 of incubation). Moreover, the “Log Reduction (cfu)” value in experiment [1] (day 21 of incubation) is given as 2.2 Log; in experiment [1] (day 28 of incubation), 3.0 Log. In addition, the MIC stood at 0.25 µg/mL in experiment [2]; 6.25 µg/mL in experiment [3]; 0.12 µg/mL in experiment [4] (Mycobacterium avium, M. avium 103, read-out: MIC); 0.23 µg/mL in experiment [4] (Mycobacterium avium, M. avium 3404.4, read-out: MIC); 0.23 µg/mL in experiment [4] (Mycobacterium avium, M. avium Far, read-out: MIC); 0.23 µg/mL in experiment [4] (M. avium 103). Moreover, the MIC in experiment [6] (M. tuberculosis Erdman ATCC 35801, read-out: MIC) stood at 0.03 µg/mL; in experiment [6] (M. tuberculosis Erdman ATCC 35801 with Mouse Serum) it was 0.5 µg/mL; in experiment [7], 0.03 µg/mL. The IC50 in experiment [5] (ERDMAN, read-out: Mtb Erdman in J774 Cells (IC50)) was less than 0.17 µg/mL; in experiment [5] (H37RV, read-out: Mtb H37Rv in J774 Cells (IC50)) it was 0.21 µg/mL; in experiment [5] (read-out: Mtb CDC1551 in J774 Cells (IC50)) it was 0.12 µg/mL.
